Where two headings read alike, the source gives them in different places. Where only a bound is given, the exact number is not on record here.

One series has as its system human lung organoids. The settings on record: viral replication in human lung organoids; cited from earlier work.
The subject of series [1] is influenza A virus (A/PR/8/34(H1N1)). Kind of series: microbe, parasite or virus in culture. The series is classed as cell-based.
Series [2] can be described thus: MTT cytotoxicity assay in MDCK cells. The series is classed as cell-based, Canine. The note with it: dog. As for the experimental part: (§1) The cytotoxic effects of the test compounds on MDCK and Vero cell lines were evaluated utilizing the 3-(4,5-dimethylthiazol-2-yl)-2,5-diphenyltetrazolium bromide (MTT) assay. In brief, cells were seeded in 96-well plates and maintained in complete growth medium. After an overnight incubation period, this medium was aspirated and replaced with serum-free DMEM containing the compounds at predetermined concentrations. After 48 h of treatment, MTT dissolved in PBS was introduced into each well to achieve a final concentration of 0.5 mg/mL. Subsequent incubation at 37 °C for 2 h facilitated formazan crystal formation. The medium was then aspirated, and DMSO was added to solubilize the formazan crystals. Absorbance measurements at 540 nm were conducted using a CLARIOstar microplate reader.
(In general: Tetrazolium assays rely on reduction of a dye to a coloured formazan, in cell work by metabolically active cells.)

Series [3] is described as follows: MTT cytotoxicity assay in Vero cells. The series is classed as cell-based. The settings on record: African green monkey, Vero-ACE2-TMPRSS2 cells. How it is done: A Vero-ACE2-TMPRSS2 (labelled ‘Vero’ hereafter) cell line was used for SARS-CoV-2.
as §1

The next series relates to SARS-CoV-2. Kind of series: microbe, parasite or virus in culture. Format: cell-based. The settings on record: Severe acute respiratory syndrome coronavirus 2.
The target of a further series is human DHODH (Homo sapiens, UniProt Q02127). The experiment in a line: Surface plasmon resonance binding. Background: In SPR one partner is held on a chip, and binding of the other changes the refractive index at the surface.
In another series the test system is DHODH. The note with it: cited from earlier work.
Another series concerns DENV and ZIKV viruses. Also on record: method as in PMID 33716051. The settings on record: cited from earlier work.
The conditions of series [4]: read-out: CC50 (hematological toxicity); cited from earlier work.
Where [5] appears, read: Influenza A virus, MDCK, A/PR/8/34(H1N1), MDCK cells, plaque reduction, read-out: IC50.
Where [6] appears, read: SARS-CoV-2, Vero-ACE2-TMPRSS2 cells, plaque assay, read-out: IC50.

Sequence of human DHODH (Q02127 whole entry): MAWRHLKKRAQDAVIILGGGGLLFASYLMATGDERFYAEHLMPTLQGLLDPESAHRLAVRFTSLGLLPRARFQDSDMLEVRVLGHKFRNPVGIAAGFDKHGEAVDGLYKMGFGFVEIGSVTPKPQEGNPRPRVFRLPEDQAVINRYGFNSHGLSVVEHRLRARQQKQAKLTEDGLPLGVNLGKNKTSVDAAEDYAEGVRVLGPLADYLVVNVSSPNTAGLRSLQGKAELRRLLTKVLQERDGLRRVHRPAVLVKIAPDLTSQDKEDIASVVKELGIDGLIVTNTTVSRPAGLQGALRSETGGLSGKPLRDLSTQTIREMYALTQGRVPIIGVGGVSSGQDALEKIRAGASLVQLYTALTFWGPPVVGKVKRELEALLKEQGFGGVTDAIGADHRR
Procedure for human DHODH: SPR binding affinities were determined using a Reichert 2SPR instrument (Reichert Technologies, Amherst, NY, USA). Carboxymethyl dextran hydrogel sensor chips were amine-coupled via standard EDC/NHS chemistry. […] Remaining activated groups were quenched with 1 M ethanolamine-HCl (pH 8.5). Equilibrium dissociation constants (KD) were derived from concentration–response curves generated by injecting compound dilutions in HBS-EP+ buffer at 30 μL/min. Original data were processed using TraceDrawer (version 1.8) software with steady-state affinity models fitted by nonlinear regression analysis.

As a reminder, the EC50 is the midpoint of the concentration-response curve. `CCn1c(CO)nn(-c2cc(O[C@@H](C)C(F)(F)F)c(C(=O)Nc3c(F)cccc3Cl)cc2F)c1=O` [BAY 2402234]: the EC50 with human lung organoids was 0.032 µM.
As usually defined, the IC50 is the concentration at which inhibition is half-maximal. Turning to `COC(=O)OCOc1c2n(ccc1=O)N([C@@H]1c3ccccc3SCc3c1ccc(F)c3F)[C@@H]1COCCN1C2=O` [Baloxavir marboxil, reference compound], the IC50 in [1] (setting [5]) is 0.00967 ± 0.00112 µM.
As usually defined, the CC50 is the concentration at which the toxic effect on the cells reaches its halfway point. For the compound `CC1(c2ccccc2)CC(C)(C)N(C(=O)CSc2nc(O)cc(CSc3ccc(Cl)cc3)n2)c2ccccc21` (centres unmarked) [Compound 1], the CC50 at 48 h in series [2] was determined as 34.5 ± 1.58 µM. In series [1] (Influenza A virus, MDCK), this compound registered an IC50 of 36.8 ± 2.36 µM.
`O=C(CCCCCn1c(=O)c2sccc2n(CC(=O)NCCC2=CCCCC2)c1=O)NCc1ccc(F)cc1` [Compound 2] yielded a 50% cytotoxic concentration (CC50) at 48 h in series [2] of over 200 µM. In [1] (Influenza A virus, MDCK), this compound had a half-maximal inhibitory concentration (IC50) of over 200 µM.
In series [2], `COC(=O)c1ccc(NC(=O)CSc2nc(-c3sc(-c4ccccc4)nc3C)cc(=O)[nH]2)cc1` [Compound 3] had a CC50 at 48 h of over 200 µM. Also, the IC50 in series [1] (Influenza A virus, MDCK) is over 200 µM.
In series [2], `CCCCc1nn2c(=O)cc(CSc3nc4ccc(NC(C)=O)cc4s3)nc2s1` [Compound 4] showed a CC50 at 48 h of over 200 µM. The compound also came in with an IC50 in [1] (Influenza A virus, MDCK) of 66.2 ± 6.29 µM.
For `O=C(COc1ccccc1)Nc1ccc(N2CCN(c3ccccc3F)CC2)cc1C(=O)O` [Compound 5] the same measures were over 200 µM and over 200 µM.
For `CC(=O)c1ccc(N2CCN(C(=O)c3cc4c(=O)n(C)c5ccccc5c4s3)CC2)cc1` [Compound 6] the same measures were over 200 µM and 4.85 ± 0.58 µM.
Regarding `O=C(Cc1cccs1)Nc1ccc(N2CCN(c3ccccc3Cl)CC2)cc1C(=O)O` [Compound 7], the CC50 at 48 h in series [2] was over 200 µM. Moreover, in [1] (Influenza A virus, MDCK), half-maximal inhibition (IC50) required 17.2 ± 1.19 µM.
As for `CN1C(=O)c2ccccc2Sc2cc(-c3noc(CNC(=O)Cc4ccc(Cl)cc4)n3)ccc21` [Compound 8], the CC50 at 48 h in series [2] was over 200 µM. This compound showed an IC50 in series [1] (Influenza A virus, MDCK) of 13.4 ± 2.45 µM.
In turn, `Cc1ccc(-c2onc3ccc(-c4cc(C(=O)O)c5ccccc5n4)cc23)cc1` [Compound 9] came in with a CC50 at 48 h in [2] of over 200 µM. Besides, the IC50 in series [1] (Influenza A virus, MDCK) is 7.35 ± 1.65 µM.
For `Cc1ccc(-c2onc3ccc(-c4cc(C(=O)O)c5cc(C)ccc5n4)cc23)cc1` [Compound 10] the same measures were over 200 µM and 1.75 ± 0.28 µM.
Consider `Cc1cc2nc(C)c(C(=O)O)n2cc1-c1ccc(-c2ccccc2)cc1` [Compound 11, 6-([1,1′-Biphenyl]-4-yl)-2,7-dimethylimidazo[1,2-a]pyridine-3-carboxylic acid], for which the CC50 at 48 h in series [2] and in series [3] was over 200 µM in each case. For the same compound, the IC50 in series [1] (setting [5]) was determined as 0.85 ± 0.05 µM; with SARS-CoV-2 (setting [6]) it was 3.6 ± 0.67 µM. Moreover, the kon on human DHODH (read-out: Ka, association constant) amounted to 4.83e+06 M⁻¹ s⁻¹. Besides, the koff at human DHODH (read-out: Kdis, dissociation constant) was found to be 29.3 s⁻¹.
As to `Cc1nc2ccc(-c3ccc(-c4ccccc4)cc3)cn2c1C(=O)O` [Compound 12, 6-([1,1′-Biphenyl]-4-yl)-2-methylimidazo[1,2-a]pyridine-3-carboxylic acid], the CC50 at 48 h in [2] and in [3] was over 200 µM each time. In addition, the IC50 was 100 ± 1.13 µM in series [1] (A/PR/8/34(H1N1), MDCK cells, plaque reduction, read-out: IC50); over 100 µM in [1] (setting [5]); over 200 µM in the series on SARS-CoV-2 (setting [6]).
Consider `Cc1nc2ncc(-c3ccc(-c4ccccc4)cc3)cn2c1C(=O)O` [Compound 13, 6-([1,1′-Biphenyl]-4-yl)-2-methylimidazo [1,2-a]pyrimidine-3-carboxylic acid], for which the CC50 at 48 h in series [2] and in [3] was over 200 µM in each case. In addition, the concentration for half-maximal inhibition (IC50) in series [1] (setting [5]) is 1.08 ± 0.26 µM; in the series on SARS-CoV-2 (setting [6]), 105 ± 5.19 µM.
With `CCOC(=O)c1c(C)nc2ccc(-c3ccc(-c4ccccc4)cc3)cn12` [Compound 14, Ethyl 6-([1,1′-biphenyl]-4-yl)-2-methylimidazo[1,2-a]pyridine-3-carboxylate], the CC50 at 48 h in [2] and in series [3] was over 200 µM in each case. Besides, the half-maximal inhibitory concentration (IC50) (in series [1] (setting [5]); in the series with SARS-CoV-2 (setting [6])) was over 200 µM throughout.
With `CCOC(=O)c1c(C)nc2cc(C)c(-c3ccc(-c4ccccc4)cc3)cn12` [Compound 15, Ethyl 6-([1,1′-biphenyl]-4-yl)-2,7-dimethylimidazo[1,2-a]pyridine-3-carboxylate], the CC50 at 48 h in [2] and in series [3] was over 200 µM throughout. The IC50 (in series [1] (setting [5]); with SARS-CoV-2 (setting [6])) was over 200 µM throughout.
With `CCOC(=O)c1c(C)nc2ncc(-c3ccc(-c4ccccc4)cc3)cn12` [Compound 16, Ethyl 6-([1,1′-biphenyl]-4-yl)-2-methylimidazo[1,2-a]pyrimidine-3-carboxylate], the cytotoxic concentration (CC50) at 48 h in series [2] and in series [3] was over 200 µM in each case. In addition, the IC50 (in series [1] (setting [5]); with SARS-CoV-2 (setting [6])) was over 200 µM in each case.
With `C/C(O)=C(\C#N)C(=O)Nc1ccc(C(F)(F)F)cc1` [Compound 17, teriflunomide, reference compound], the CC50 at 48 h in series [2] was 181 ± 16.4 µM; in series [3] it was over 200 µM. The IC50 in series [1] (setting [5]) was 35 ± 3.33 µM; in the series with SARS-CoV-2 (setting [6]), 26.1 ± 4.32 µM; in the series on DHODH (competing with ubiquinone, read-out: IC50 (DHODH inhibition)), […].
For the compound `Cc1c(-c2ccc(-c3ccccc3F)cc2)nc2ccc(F)cc2c1C(=O)O` [Compound 18, brequinar], the EC50 in the series with DENV and ZIKV viruses was 0.017 to 0.061 µM. Also, in series [4], the 50% cytotoxic concentration (CC50) was over 5 µM. The “Ka, association constant” value at human DHODH (SPR) is reported as 1.31 × 10^6 M^−1S^−1.
`CCC(CC)COC(=O)[C@H](C)N[P@](=O)(OC[C@H]1O[C@@](C#N)(c2ccc3c(N)ncnn23)[C@H](O)[C@@H]1O)Oc1ccccc1` [Remdesivir, reference compound] registered an IC50 in the series on SARS-CoV-2 of 4.95 ± 0.78 µM.
For the compound `COc1cccc(-c2ccc(NC(=O)C3=C(C(=O)O)CCC3)c(F)c2)c1` [vidofludimus], in the series with DHODH (enhanced selectivity, read-out: IC50), the IC50 is 0.041 to 0.16 µM.

Values taken from publication PMC12472551, “Comprehensive Identification and Mechanistic Evaluation of Novel DHODH Inhibitors as Potent Broad-Spectrum Antiviral Agents” (Pharmaceuticals, 2025).
